Where two headings read alike, the source gives them in different places.

Assay [1] has as its system Human whole blood pERK. Kind of assay: Assay 11: DGK Human Whole Blood pERK Assay. The settings on record: anti-CD3 stimulation, pERK positive within CD8 positive population, starting concentration 20 μM, read-out: DGK HWB pERK IC50. The assay is classed as cell-based. Here is the method:
Assay 11: DGK Human Whole Blood pERK Assay
Human whole blood ERK phosphorylation assay was performed with human venous whole blood obtained from healthy donors (drawn with Heparin as anti-coagulant). Serial dilutions of compounds (11 points, 3-fold) in DMSO were added to 384 well plates at 20 nL/well using an ECHO 550 acoustic dispenser (Labcyte) to achieve final starting concentration of 20 μM in assay. Heparinized human whole blood was added to the compound plate at 9 μL per well and incubated for one hour at 37° C. in a humidified 95%, air/5% CO2 incubator. After one hour of compound incubation, 1 μL of human anti-CD3 antibody (in-house) in the presence of cross-linking antibody goat anti-mouse IgG (4 μg/mL) was added to the well at 1 μg/mL final concentration for stimulation of pathway and additionally incubated for 15 minutes at 37° C. Stimulation was stopped by adding 90 μL Fix/Lyse buffer (BD 558049). Cells were washed and stained with anti-CD8 PE (BD 555635) antibodies for 60 minutes at room temperature, washed again, and permeabilized on ice using Perm III buffer (BD 558050) for 30 minutes. Cells were then stained with an Alexa Fluor® 647 anti-ERK1/2 Phospho (Thr202/Tyr204) Antibody (Bioleged 675504) for 60 minutes at 1:50 dilution. Samples were washed and resuspended in dPBS containing 1% BSA (dPBS, Gibco 14190136; BSA, Sigma-Aldrich A9205). Samples analyzed using the Intellicyt® iQue Screener PLUS. The pERK activation was quantitated by the percentage of pERK positive population within CD8 positive population.

Assay [2] deals with DGKα (Homo sapiens (Human), UniProt P23743). Kind of assay: Assay 2: In Vitro DGK Inhibition Assays, Method B (DGKα ADPGLO). It is filed as biochemical. The conditions noted are these: 150 μM ATP. The protocol:
Assay 2: In Vitro DGK Inhibition Assays—Method B
The DGKα and DGKζ reactions were performed using either extruded liposome (DGKα and DGKζ LIPGLO assays) or detergent/lipid micelle substrate (DGKα and DGKζ assays). The reactions were carried out in 50 mM MOPS pH 7.5, 100 mM NaCl, 10 mM MgCl2, 1 μM CaCl2), and 1 mM DTT (assay buffer). The reactions using a detergent/lipid micelle substrate also contained 50 mM octyl B-D-glucopyranoside. The lipid substrate concentrations were 11 mM PS and 1 mM DAG for the detergent/lipid micelle reactions. The lipid substrate concentrations were 2 mM PS, 0.25 mM DAG, and 2.75 mM PC for the extruded liposome reactions (5 mM total lipid). The reactions were carried out in 150 μM ATP. The enzyme concentrations for the DGKα and DGKζ were nM.
The compound inhibition studies were carried out as follows: 25 nL droplets of each test compound (top concentration 10 mM with 11 point, 3-fold dilution series for each compound) solubilized in DMSO were transferred to wells of a white 1536 well plate (Corning 3725). A 5 mL enzyme/lipid substrate solution at 2× final reaction concentration was prepared by combining 2.5 mL 4× enzyme solution (20 nM DGKα or DGKζ (prepared as described below) in assay buffer) and 2.5 mL of either 4× liposome or 4× detergent/lipid micelle solution (compositions described below) and incubated at room temperature for 10 minutes. Next, 1 μL 2× enzyme/lipid substrate solution was added to wells containing the test compound and reactions were initiated with the addition of 1 μL 300 uM ATP. The reactions were allowed to proceed for 2 hr, after which 2 μL Glo Reagent (Promega V9101) was added and incubated for 40 minutes. Next, 4 μL Kinase Detection Reagent was added and incubated for 30 minutes. Luminescence was recorded using an EnVision microplate reader. […] The compounds were evaluated at 11 concentrations to determine IC50.
The detergent/lipid micelle was prepared by combining 15 g phosphatidylserine (Avanti 840035P) and 1 g diacylglycerol (8008110) and dissolving into 150 mL chloroform in a 2 L round bottom flask. Chloroform was removed under high vacuum by rotary evaporation. The resulting colorless, tacky oil was resuspended in 400 mL 50 mM MOPS pH 7.5, 100 mM NaCl, 20 mM NaF, 10 mM MgCl2, 1 μM CaCl2), 1 mM DTT, and 200 mM octyl glucoside by vigorous mixing. The lipid/detergent solution was split into 5 mL aliquots and stored at −80° C.
The lipid composition was 5 mol % DAG (Avanti 8008110), 40 mol % PS (Avanti 840035P), and 55 mol % PC (Avanti 850457) at a total lipid concentration of […] for the liposome solution. The PC, DAG, and PS were dissolved in chloroform, combined, and dried in vacuo to a thin film. The lipids were hydrated to 20 mM in 50 mM MOPS pH 7.5, 100 mM NaCl, 5 mM MgCl2, and were freeze-thawed five times. The lipid suspension was extruded through a 100 nm polycarbonate filter 10-12 times. Dynamic light scattering was carried out to confirm liposome size (50-60 nm radius). The liposome preparation was stored at 4° C. for as long as four weeks.
Human MA-hDGKα-(S9-S727)-Ct-TVMV-His-pFBgate and full length human DGK-ζ-transcript variant-2-TVMV-His-pFBgate baculovirus samples were generated using the Bac-to-Bac baculovirus expression system (Invitrogen) according to the manufacturer's protocol (note: MA- in name of DGKα reagents indicates two extra amino acids added prior to Ser-9). The DNA used for expression of the DGK-α(9-727) and DGK-C have SEQ ID NOs: 5 and 3, respectively. […]
Background: ADP-Glo turns the ADP formed in a reaction into a luminescent signal.

Sequence of DGKα (P23743 other isoform, or with tags, fused parts or gaps): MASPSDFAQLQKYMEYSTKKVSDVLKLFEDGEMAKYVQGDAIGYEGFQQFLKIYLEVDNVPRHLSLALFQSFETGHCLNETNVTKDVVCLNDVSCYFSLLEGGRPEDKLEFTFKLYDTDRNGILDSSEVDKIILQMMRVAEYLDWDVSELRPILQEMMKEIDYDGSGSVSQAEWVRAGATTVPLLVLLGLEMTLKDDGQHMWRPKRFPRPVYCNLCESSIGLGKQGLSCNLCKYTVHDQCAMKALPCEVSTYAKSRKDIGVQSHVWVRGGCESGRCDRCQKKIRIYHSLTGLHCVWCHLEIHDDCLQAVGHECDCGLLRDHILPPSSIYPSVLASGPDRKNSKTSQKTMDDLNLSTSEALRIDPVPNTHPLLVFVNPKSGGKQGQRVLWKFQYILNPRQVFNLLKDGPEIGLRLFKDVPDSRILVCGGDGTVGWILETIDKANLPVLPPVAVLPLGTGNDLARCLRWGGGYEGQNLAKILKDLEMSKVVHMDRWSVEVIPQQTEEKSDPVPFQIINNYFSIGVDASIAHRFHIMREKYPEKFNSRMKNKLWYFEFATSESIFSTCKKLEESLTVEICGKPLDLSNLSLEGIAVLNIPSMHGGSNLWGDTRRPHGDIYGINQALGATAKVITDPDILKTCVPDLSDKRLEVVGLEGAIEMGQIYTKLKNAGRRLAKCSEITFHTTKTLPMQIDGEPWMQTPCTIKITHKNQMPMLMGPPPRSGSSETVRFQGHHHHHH

By IC50 is commonly meant the concentration needed to halve the response being measured. Regarding `CC[C@H]1CN(C(C(=O)N2CCOCC2)c2ccc(C(F)(F)F)cc2)[C@H](CC)CN1c1nc(=O)n(C)c2ccc(C#N)nc12` (single isomer, unassigned) [Example 53], the IC50 turned out to be 5530 nM in assay [1] (Homo sapiens, CD8 positive) and 1970 nM in assay [2].
As for `CC[C@H]1CN(C(C(=O)N2CCOCC2)c2ccc(C(F)(F)F)cc2)[C@H](CC)CN1c1nc(=O)n(C)c2ccc(C#N)nc12` (single isomer, unassigned) [Example 54], the half-maximal inhibitory concentration (IC50) in assay [1] is 3510 nM; in assay [2] it was 260 nM.
As to `CC[C@H]1CN(C(C(=O)NCCOC)c2ccc(C(F)(F)F)cc2)[C@H](CC)CN1c1nc(=O)n(C)c2ccc(C#N)nc12` (single isomer, unassigned) [Example 56], the concentration for half-maximal inhibition (IC50) in assay [1] (Homo sapiens, CD8 positive) was found to be 300 nM; in assay [2], 7500 nM.

The values are drawn from patent US12454531B2, “Substituted piperazine derivatives useful as T cell activators” (BRISTOL-MYERS SQUIBB COMPANY, priority 2019, dated 2025).
